Laboratory results: the NIST ThermoML archive (doi:10.1021/je800529x)
Numbers after ± are expanded uncertainties.

Conditions: Liquid, Drop weight

O=C=O [carbon dioxide] + O
interfacial tension [mN/m]
Conditions | 2000 kPa | 4000 kPa | 6000 kPa | 8000 kPa | 12000 kPa | 17400 kPa | 27000 kPa
293.15 K | 62.4 ± 1.7 | 43.5 ± 1.3 | 34.9 ± 1 | 29.1 ± 0.8 | 25.1 ± 0.7 | 23.2 ± 0.8 | 18.9 ± 0.7
298.15 K | 62.1 ± 1.7 | 45.1 ± 2.5 | 36.2 ± 1.3 | 30.6 ± 1.6 | 26.5 ± 1 | 24.9 ± 0.8 | 21.1 ± 0.6
299.15 K | 61.8 ± 1.7 | 45.6 ± 1.3 | 36.5 ± 1.1 | 30.8 ± 1.1 | 26.9 ± 0.8 | 25 ± 1 | 21.3 ± 0.7
301.15 K | 62 ± 2 | 46.1 ± 1.4 | 37.6 ± 1.3 | 32.8 ± 1.1 | 27.4 ± 0.8 | 25.8 ± 0.8 | 22.3 ± 1.3
303.15 K | 62.1 ± 1.7 | 48.2 ± 1.5 | 39.7 ± 1.3 | 33.5 ± 1.1 | 27.7 ± 0.8 | 26.4 ± 0.8 | 25.7 ± 1.2
305.15 K | 62.5 ± 1.7 | 49.1 ± 2.8 | 40.7 ± 2.3 | 34.8 ± 1.8 | 28.6 ± 2.4 | 27.4 ± 2.6 | 26.1 ± 2.5
307.15 K | 61.5 ± 1.7 | 38.2 ± 3.3 | 31.5 ± 3.4 | 27.3 ± 2.9 | 18.5 ± 3.5 | 16.4 ± 4 | 16.1 ± 3.5
308.15 K | 62.1 ± 2.4 | 39.3 ± 1.3 | 31.9 ± 0.9 | 27.4 ± 0.8 | 18.6 ± 0.6 | 16.6 ± 0.7 | 16.3 ± 0.5
309.15 K | 64.9 ± 3.3 | 39.6 ± 6.3 | 32.1 ± 1.5 | 27.5 ± 0.8 | 19 ± 3 | 17.3 ± 1.3 | 16.6 ± 0.6
314.15 K | 65.2 ± 1.8 | 42.9 ± 1.3 | 33.2 ± 1 | 28.5 ± 0.9 | 19.9 ± 0.7 | 17.8 ± 0.7 | 16.9 ± 0.7
333.15 K | 66.6 ± 1.8 | 52.9 ± 1.5 | 43.1 ± 1.2 | 37.9 ± 1.1 | 31.2 ± 1 | 29.4 ± 0.9 | 28.8 ± 0.9
348.15 K | 66.9 ± 1.8 | 53.2 ± 1.5 | 43.6 ± 1.2 | 38.6 ± 1.1 | 34.5 ± 1 | 31.5 ± 0.9 | 29.9 ± 0.8
373.15 K | 67.7 ± 1.9 | 57.9 ± 1.6 | 47.5 ± 1.3 | 41.7 ± 1.2 | 37.6 ± 1.1 | 32.9 ± 0.9 | 32.1 ± 0.9
398.15 K | 68.1 ± 1.9 | 58.9 ± 1.6 | 50.5 ± 1.4 | 44.6 ± 1.2 | 39.6 ± 1.1 | 36.1 ± 1 | 33.2 ± 0.9
